We go through 53 compounds from article PMC12064818, “A general assay platform to study protein pharmacology using ligand-dependent structural dynamics” (Nature Communications, 2025).

The assay addresses T1, FLuc-C-HiBiT (Photinus pyralis, UniProt P08659).
T1 construct: firefly luciferase with C-terminal HiBiT tag, E. coli expressed
Briefly: biochemical. To be noted: enzyme activity, 10 uM ATP; read-out: IC50 or SDR50 (mM) / FLuc E.

Structures are written as SMILES. Bounds are passed on as bounds.

T1 sequence (P08659 whole entry, looked up): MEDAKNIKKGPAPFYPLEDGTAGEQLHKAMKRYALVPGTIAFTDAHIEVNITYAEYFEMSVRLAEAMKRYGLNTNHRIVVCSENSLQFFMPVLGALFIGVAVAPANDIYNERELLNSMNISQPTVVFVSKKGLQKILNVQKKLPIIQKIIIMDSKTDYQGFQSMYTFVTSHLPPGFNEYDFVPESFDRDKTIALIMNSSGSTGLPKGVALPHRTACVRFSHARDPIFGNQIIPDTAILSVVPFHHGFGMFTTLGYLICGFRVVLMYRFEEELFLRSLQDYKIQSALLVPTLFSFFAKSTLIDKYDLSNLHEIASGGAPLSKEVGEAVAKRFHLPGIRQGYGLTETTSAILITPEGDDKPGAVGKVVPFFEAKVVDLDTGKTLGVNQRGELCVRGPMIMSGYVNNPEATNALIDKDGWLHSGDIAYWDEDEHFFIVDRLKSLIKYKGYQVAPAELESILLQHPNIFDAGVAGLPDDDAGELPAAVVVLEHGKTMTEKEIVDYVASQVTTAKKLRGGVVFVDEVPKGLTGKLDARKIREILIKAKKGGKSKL

Consider `Cc1nn(-c2ccc(C(C)(C)C)cc2)c(C)c1[C@@H]1C=C[C@@H](NC(=O)COCC(=O)O)C1` [NCGC00400262-01], for which the IC50 was determined as 0.0202 mM. The value for `COc1ccc(-n2nc(C)c([C@@H]3C=C[C@@H](NC(=O)Nc4cccc(C#N)c4)C3)c2C)cc1` [NCGC00400336-01] was 0.018 mM; that for `CC(=O)N[C@@H]1C=C[C@@H](c2c(C)nn(-c3ccc(C(F)(F)F)cc3)c2C)C1` [NCGC00400353-01] was 0.0161 mM.

With `COc1ccc(CN2C[C@H](O)C[C@H]2c2nc(-c3ccc(OC)cc3)no2)cc1` [NCGC00400669-01], the IC50 stood at 0.0143 mM. Then `COc1ccc(-c2noc([C@@H]3C[C@@H](O)CN3Cc3cccs3)n2)cc1` [NCGC00400674-01], with 0.0202 mM; and `COc1ccc(-c2noc([C@@H]3C[C@@H](O)CN3Cc3cc4ccccc4o3)n2)cc1` [NCGC00400688-01], with 0.0161 mM; and `CN1C[C@@H](N[S+](=O)([O-])c2ccc(C#N)cc2)C[C@H]1c1nc(-c2ccc(Cl)cc2)no1` [NCGC00400957-01], with 0.0111 mM. The value for `CSCC(=O)Nc1nc2c(s1)C[C@]1(C)CC[C@@H]3[C@H](OC(=O)[C@H]3C)[C@H]1[C@@H]2C` [NCGC00401416-01] was 0.00453 mM. The value for `C[C@H](C(=O)N1CCCC1)C1CC[C@@]2(C)Cc3sc(-c4ccccc4)nc3[C@@H](C)[C@@H]2[C@H]1O` (some centres unmarked) [NCGC00401417-01] was 0.00197 mM; that for `C[C@@H]1C(=O)O[C@H]2[C@H]1CC[C@@]1(C)Cc3sc(NC(=O)c4ccncc4)nc3[C@@H](C)[C@H]21` [NCGC00401418-01] was 0.00057 mM; that for `CN(Cc1ccccc1)C(=O)[C@H]1C[C@@H](O)[C@H](O)[C@@H]2N=C(Nc3ccc(-n4cccn4)cc3)S[C@@H]21` [NCGC00401585-01] was 0.0111 mM. For the compound `Cc1nn(-c2cccc(Br)c2)c(C)c1[C@@H]1C=C[C@@H](NC(=O)CC(C)(C)CC(=O)O)C1` [NCGC00401591-01], the IC50 was > 0.03 mM.

For the compound `COc1ccc(C(=O)N[C@@H]2CN(C(=O)Nc3ccc(OC(F)(F)F)cc3)CCC[C@H]2O)cc1` [NCGC00401608-01], the IC50 was 0.0111 mM. With `Cc1ccc(-n2nc(C)c([C@H]3C=C[C@@H](OC(=O)Nc4cccc(C(F)(F)F)c4)C3)c2C)cc1Cl` [NCGC00401611-01], the IC50 is > 0.03 mM. The value for `Cc1ccc(-n2nc(C)c([C@@H]3C=C[C@@H](NC(=O)COCC(=O)O)C3)c2C)cc1Cl` [NCGC00401616-01] was > 0.03 mM; that for `Cc1nn(-c2ccc(C(C)C)cc2)c(C)c1[C@@H]1C=C[C@@H](NC(=O)COCC(=O)O)C1` [NCGC00401626-01] was 0.0202 mM. The value for `Cc1ccc(-c2noc([C@@H]3Cc4[nH]cnc4CN3C(=O)Nc3cccc(F)c3)n2)cc1` [NCGC00401633-01] was 0.0202 mM.

Consider `COc1ccc(-c2noc([C@@H]3Cc4[nH]cnc4CN3C(=O)Nc3ccc(Cl)cc3)n2)cc1` [NCGC00401634-01], for which the IC50 was > 0.03 mM. The value for `Cc1cc(-c2nc3cc(F)ccc3s2)ccc1N` [NCGC00402259-04] was 0.00111 mM; that for `O=C1Cc2c(-c3cccc4ccccc34)n[nH]c2CN1CCOc1ccccc1` [NCGC00409142-01] was 0.018 mM. Take `COc1cccc(-c2csc(CN3CCCC(C)(NC(C)=O)C3)c2)c1` (centres unmarked) [NCGC00410342-01]: the IC50 is 0.0202 mM. Then `COc1ccc(-c2ccc(CN3CC(C)(NC(C)=O)C3)s2)cn1` [NCGC00410343-01], with 0.0202 mM. Then `CC1(NC(=O)C2CC2)CN(Cc2nc(-c3cccc(F)c3)cs2)C1` [NCGC00410350-01], with 0.0202 mM. Then `CC(=O)NC1(C)CN(Cc2ccc(-c3ccc(Oc4ccccc4)cc3)s2)C1` [NCGC00410351-01], with 0.0255 mM. `CC(=O)NC1(C)CCN(Cc2cccc(-c3ccc4ccccc4c3)c2)C1` (centres unmarked) [NCGC00410355-01]: the IC50 was determined as 0.0114 mM. Then `CC1(NC(=O)C2CC2)CN(Cc2nc(-c3ccccc3)cs2)C1` [NCGC00410376-01], with 0.0202 mM; and `CC1(NC(=O)C2CC2)CN(Cc2nc(-c3ccccc3OCc3ccccc3)cs2)C1` [NCGC00410379-01], with 0.0161 mM; and `CC(=O)NC1(C)CCN(Cc2ccc(-c3ccc4c(ccn4C)c3)cc2)C1` (centres unmarked) [NCGC00410408-01], with 0.00718 mM. Then `CC(=O)NC1(C)CCN(Cc2cccc(-c3ccc4c(ccn4C)c3)c2)C1` (centres unmarked) [NCGC00410415-01], with 0.0101 mM; and `CC(=O)NC1(C)CN(Cc2ccc(-c3ccc4c(ccn4C)c3)s2)C1` [NCGC00410429-01], with 0.00286 mM; and `CC(=O)NC1(C)CN(Cc2ccc(-c3ccccc3OCc3ccccc3)s2)C1` [NCGC00410438-01], with 0.0227 mM. The value for `COc1cccc(Nc2ccc(CN3CCC(C)(NC(C)=O)C3)cc2)c1` (centres unmarked) [NCGC00410471-01] was 0.0202 mM. As for `COCCN1CCNc2cc(-c3cccc(OC)c3)ncc2C1` [NCGC00411013-01], the IC50 worked out at 0.0202 mM. On to `Oc1cccc(-c2cc3c(cn2)CN(Cc2cccnc2)CCN3)c1` [NCGC00411023-01], for which the IC50 came to 0.0227 mM. Then `COc1cccc(CN2CCNc3cc(-c4ccnc(C)c4)ncc3C2)c1` [NCGC00411029-01], with 0.018 mM; and `COc1ccc(-c2cc3c(cn2)CN(Cc2cccnc2)CCN3)cc1F` [NCGC00411039-01], with 0.0143 mM; and `Cc1cc(-c2cc3c(cn2)CN(Cc2ccccc2O)CCN3)ccn1` [NCGC00411040-01], with 0.018 mM.

As to `OCc1cccc(-c2cc3c(cn2)CN(Cc2ccccc2)CCN3)c1` [NCGC00411045-01], the IC50 was 0.018 mM. Consider `Cc1cc(-c2cc3c(cn2)CN(Cc2nccn2C)CCN3)ccn1` [NCGC00411046-01], for which the IC50 stood at 0.0161 mM. Then `c1cncc(Nc2cc3c(cn2)CN(Cc2cc[nH]n2)CCN3)c1` [NCGC00411048-01], with 0.018 mM; and `c1ccc(Nc2cc3c(cn2)CN(CC2CCOC2)CCN3)cc1` (centres unmarked) [NCGC00411051-01], with 0.0202 mM. The value for `CC(C)CN1CCNc2cc(-c3ccccc3)ncc2C1` [NCGC00411061-01] was 0.0226 mM; that for `Oc1ccccc1CN1CCNc2cc(-c3ccccc3)ncc2C1` [NCGC00411063-01] was 0.0161 mM; that for `COc1cccc(Nc2cc3c(cn2)CN(C)CCN3)c1` [NCGC00411064-01] was 0.0226 mM. Then `CC(=O)N1CCNc2cc(-c3ccccc3F)ncc2C1` [NCGC00411070-01], with 0.0285 mM; and `Cc1cc(-c2cc3c(cn2)CN(CC(C)C)CCN3)ccn1` [NCGC00411077-01], with 0.0161 mM. As for `CN1CCNc2cc(-c3ccc([S+](C)(=O)[O-])cc3)ncc2C1` [NCGC00411079-01], the IC50 was > 0.03 mM. `COc1ccc(CN2CCNc3cc(Nc4ccccc4)ncc3C2)cn1` [NCGC00411080-01]: the IC50 is 0.018 mM. The value for `CC(=O)N1CCNc2cc(Nc3ccc(F)cc3)ncc2C1` [NCGC00411083-01] was 0.0057 mM.

As to `c1ccc(Nc2cc3c(cn2)CN(Cc2ccsc2)CCN3)cc1` [NCGC00411091-01], the IC50 stood at 0.0143 mM. Then `Clc1cccc(Nc2cc3c(cn2)CN(Cc2cccnc2)CCN3)c1` [NCGC00411094-01], with 0.0128 mM; and `COc1cccc(Nc2cc3c(cn2)CN(C(C)=O)CCN3)c1` [NCGC00411096-01], with 0.00904 mM. The value for `Clc1ccc(-c2cc3c(cn2)CN(Cc2ccncc2)CCN3)cc1` [NCGC00411101-01] was 0.0161 mM.
